Data taken from BindingDB's records for doi:10.1021/jm100555f (Harvard Medical School, 2010).

assay: Inhibition of Bcr-Abl in mouse BA/F3 cells

| SMILES | EC50 |
| --- | --- |
| Cc1nc(C)c(Cn2ncc3c(Nc4ccc(OC(F)(F)F)cc4)ncnc32)s1 [1-((2,4-dimethylthiazol-5-yl)methyl)-N-(4-(trifluoromethoxy)phenyl)-1H-pyrazolo[3,4-d]pyrimidin-4-amine] | 6920 nM |
| FC(F)(F)Oc1ccc(Nc2ncnc3c2cnn3CC2CCOC2)cc1 (stereo not given) [1-((tetrahydrofuran-3-yl)methyl)-N-(4-(trifluoromethoxy)phenyl)-1H-pyrazolo[3,4-d]pyrimidin-4-amine] | 690 nM |
| FC(F)(F)Oc1ccc(Nc2ncnc3c2cnn3C2CCCCC2)cc1 [1-cyclohexyl-N-(4-(trifluoromethoxy)phenyl)-1H-pyrazolo[3,4-d]pyrimidin-4-amine] | 400 nM |
| CCCn1ncc2c(Nc3ccc(OC(F)(F)F)cc3)ncnc21 [1-propyl-N-(4-(trifluoromethoxy)phenyl)-1H-pyrazolo[3,4-d]pyrimidin-4-amine] | 270 nM |
| CC(C)(C)n1ncc2c(Nc3ccc(OC(F)(F)F)cc3)ncnc21 [1-tert-butyl-N-(4-(trifluoromethoxy)phenyl)-1H-pyrazolo[3,4-d]pyrimidin-4-amine] | 160 nM |
| NC(=O)Cn1ncc2c(Nc3ccc(OC(F)(F)F)cc3)ncnc21 [2-(4-(4-(trifluoromethoxy)phenylamino)-1H-pyrazolo[3,4-d]pyrimidin-1-yl)acetamide] | 350 nM |
| NC(=O)CCn1ccc2c(Nc3ccc(OC(F)(F)F)cc3)ncnc21 [3-(4-(4-(trifluoromethoxy)phenylamino)-7H-pyrrolo[2,3-d]pyrimidin-7-yl)propanamide] | 490 nM |
| NS(=O)(=O)c1cccc(-c2cc(Nc3ccc(OC(F)(F)F)cc3)ncn2)c1 [3-(6-(4-(trifluoromethoxy)phenylamino)pyrimidin-4-yl)benzenesulfonamide] | 580 nM |
| NC(=O)c1cccc(Nc2cc(Nc3ccc(OC(F)(F)F)cc3)ncn2)c1 [3-(6-(4-(trifluoromethoxy)phenylamino)pyrimidin-4-ylamino)benzamide] | 2920 nM |
| NC(=O)c1cccc(Oc2cc(Nc3ccc(OC(F)(F)F)cc3)ncn2)c1 [3-(6-(4-(trifluoromethoxy)phenylamino)pyrimidin-4-yloxy)benzamide] | 5000 nM |
| O=C(O)c1cc2c(Nc3ccc(OC(F)(F)F)cc3)ncnc2s1 [4-(4-(trifluoromethoxy)phenylamino)thieno[2,3-d]pyrimidine-6-carboxylic acid] | > 10000 nM |
| NC(=O)c1ccc(-c2cc(Nc3ccc(OC(F)(F)F)cc3)ncn2)cc1 [4-(6-(4-(trifluoromethoxy)phenylamino)pyrimidin-4-yl)benzamide] | 480 nM |
| NS(=O)(=O)c1ccc(-c2cc(Nc3ccc(OC(F)(F)F)cc3)ncn2)cc1 [4-(6-(4-(trifluoromethoxy)phenylamino)pyrimidin-4-yl)benzenesulfonamide] | 120 nM |
| Cc1c(NCCN2CCOCC2)ncnc1Nc1ccc(OC(F)(F)F)cc1 [5-methyl-N4-(2-morpholinoethyl)-N6-(4-(trifluoromethoxy)phenyl)pyrimidine-4,6-diamine] | 970 nM |
| CC(C)Cn1cc(-c2cc(Nc3ccc(OC(F)(F)F)cc3)ncn2)cn1 [6-(1-isobutyl-1H-pyrazol-4-yl)-N-(4-(trifluoromethoxy)phenyl)pyrimidin-4-amine] | 360 nM |
| FC(F)(F)Oc1ccc(Nc2cc(-n3ccnc3)ncn2)cc1 [6-(1H-imidazol-1-yl)-N-(4-(trifluoromethoxy)phenyl)pyrimidin-4-amine] | 1660 nM |
| FC(F)(F)Oc1ccc(Nc2cc(-c3cccc4[nH]ccc34)ncn2)cc1 [6-(1H-indol-4-yl)-N-(4-(trifluoromethoxy)phenyl)pyrimidin-4-amine] | 140 nM |
| FC(F)(F)Oc1ccc(Nc2cc(-c3ccc4[nH]ccc4c3)ncn2)cc1 [6-(1H-indol-5-yl)-N-(4-(trifluoromethoxy)phenyl)pyrimidin-4-amine] | 290 nM |
| FC(F)(F)Oc1ccc(Nc2cc(-c3cn[nH]c3)ncn2)cc1 [6-(1H-pyrazol-4-yl)-N-(4-(trifluoromethoxy)phenyl)pyrimidin-4-amine] | 90 nM |
| FC(F)(F)Oc1ccc(Nc2cc(-c3ccnc4[nH]ccc34)ncn2)cc1 [6-(1H-pyrrolo[2,3-b]pyridin-4-yl)-N-(4-(trifluoromethoxy)phenyl)pyrimidin-4-amine] | 170 nM |
| Cc1nc(-c2cc(Nc3ccc(OC(F)(F)F)cc3)ncn2)cs1 [6-(2-methylthiazol-4-yl)-N-(4-(trifluoromethoxy)phenyl)pyrimidin-4-amine] | 1230 nM |
| CS(=O)(=O)c1cccc(-c2cc(Nc3ccc(OC(F)(F)F)cc3)ncn2)c1 [6-(3-(methylsulfonyl)phenyl)-N-(4-(trifluoromethoxy)phenyl)pyrimidin-4-amine] | 390 nM |

Further lines, results first:

| EC50 | SMILES |
| --- | --- |
| 7150 nM | FC(F)(F)Oc1ccc(Nc2ncnc3c2cnn3Cc2cccnc2)cc1 [1-(pyridin-3-ylmethyl)-N-(4-(trifluoromethoxy)phenyl)-1H-pyrazolo[3,4-d]pyrimidin-4-amine] |
| 400 nM | FC(F)(F)Oc1ccc(Nc2ncnc3c2cnn3Cc2ccccc2)cc1 [1-benzyl-N-(4-(trifluoromethoxy)phenyl)-1H-pyrazolo[3,4-d]pyrimidin-4-amine] |
| 300 nM | CCn1ncc2c(Nc3ccc(OC(F)(F)F)cc3)ncnc21 [1-ethyl-N-(4-(trifluoromethoxy)phenyl)-1H-pyrazolo[3,4-d]pyrimidin-4-amine] |
| 250 nM | OCCn1ncc2c(Nc3ccc(OC(F)(F)F)cc3)ncnc21 [2-(4-(4-(Trifluoromethoxy)phenylamino)-1H-pyrazolo-[3,4-d]pyrimidin-1-yl)ethanol] |
| 1320 nM | OCCn1cc2c(Nc3ccc(OC(F)(F)F)cc3)ncnc2n1 [2-(4-(4-(Trifluoromethoxy)phenylamino)-2H-pyrazolo[3,4-d]pyrimidin-2-yl)ethanol] |
| 4340 nM | NC(=O)Cn1cc2c(Nc3ccc(OC(F)(F)F)cc3)ncnc2n1 [2-(4-(4-(trifluoromethoxy)phenylamino)-2H-pyrazolo[3,4-d]pyrimidin-2-yl)acetamide] |
| > 10000 nM | NC(=O)c1ccccc1-c1cc(Nc2ccc(OC(F)(F)F)cc2)ncn1 [2-(6-(4-(trifluoromethoxy)phenylamino)pyrimidin-4-yl)benzamide] |
| 1700 nM | FC(F)(F)Oc1ccc(Nc2ncnc3nn(Cc4cccnc4)cc23)cc1 [2-(pyridin-3-ylmethyl)-N-(4-(trifluoromethoxy)phenyl)-2H-pyrazolo[3,4-d]pyrimidin-4-amine] |
| > 10000 nM | FC(F)(F)Oc1ccc(Nc2ncnc3nn(Cc4ccccc4)cc23)cc1 [2-benzyl-N-(4-(trifluoromethoxy)phenyl)-2H-pyrazolo[3,4-d]pyrimidin-4-amine] |
| 2200 nM | FC(F)(F)Oc1ccc(Nc2ncnc3nn(C4CCCCC4)cc23)cc1 [2-cyclohexyl-N-(4-(trifluoromethoxy)phenyl)-2H-pyrazolo[3,4-d]pyrimidin-4-amine] |
| 1200 nM | CCn1cc2c(Nc3ccc(OC(F)(F)F)cc3)ncnc2n1 [2-ethyl-N-(4-(trifluoromethoxy)phenyl)-2H-pyrazolo[3,4-d]pyrimidin-4-amine] |
| 160 nM | CCCn1cc2c(Nc3ccc(OC(F)(F)F)cc3)ncnc2n1 [2-propyl-N-(4-(trifluoromethoxy)phenyl)-2H-pyrazolo[3,4-d]pyrimidin-4-amine] |
| 6890 nM | NC(=O)c1ccc(Cn2ncc3c(Nc4ccc(OC(F)(F)F)cc4)ncnc32)cc1 [4-((4-(4-(trifluoromethoxy)phenylamino)-1H-pyrazolo[3,4-d]pyrimidin-1-yl)methyl)benzamide] |
